We go through 19 compounds from US9980948B2, “Azaindole derivative having AMPK-activating activity” (Shionogi & Co., Ltd., priority 2014, dated 2018).

Structures are written as SMILES. Where two headings read alike, the source gives them in different places.

In the assay the target is T1, Human AMPK α2β2γ1 (Homo sapiens, UniProt O43741+P54646).
T1 construct: The full length cDNAs of human AMPK β2 (NM_005399.3) and human AMPK α2 (NM_006252.3); The full length cDNAs of human AMPK β2 (NM_005399.3); the full length cDNA of human AMPK γ1 (NM_002733.3) had been inserted into pET28b(+); 6xHis (N); made in house; host or cells: Escherichia coli BL21 CodonPlus (DE3)-RTL (AMPK); BL21 Star (DE3) (CaMKKβ)
As to the kind of experiment: Test Example 2: evaluation of an activator for AMP-activated protein kinase (AMPK), human AMPK α2β2γ1 phosphorylated with CaMKK2, FL-Peptide 7 mobility shift. It is filed as biochemical. The note with it: for EC150 (compound concentration showing 150% relative to the control (100%)): human AMPK α2β2γ1, 0.2 mM ATP final, 25° C., 2 hours; for Emax: read-out: Emax (maximum rate of increase in activity within the measurement range). On the procedure: The full length cDNAs of human AMPK β2 (NM_005399.3) and human AMPK α2 (NM_006252.3) were inserted into the MCS1 and MCS2 of the pETDuet-1 vector to prepare a human AMPK β2 and human AMPK α2 (6× His tag at the 5′ terminus) expressing plasmid. The plasmid was cotransfected with an expression plasmid, in which the full length cDNA of human AMPK γ1 (NM_002733.3) had been inserted into pET28b(+), into BL21 CodonPlus (DE3)-RTL to obtain an expression strain. The expression strain was cultured in TB medium, followed by induction with 0.5 mM IPTG, and cultured at 25° C. for 3 hours and then harvested.
An expression vector, in which the full length cDNA of human CAMKK β (NM_172226.1) had been inserted into pGEX-6P-3, was transfected into BL21 Star (DE3). The expression strain was cultured in TB medium, followed by induction with 0.5 mM IPTG, and cultured at 25° C. for 3 hours and then harvested.
Thus, phosphorylation treatment was carried out as pretreatment.
Human AMPK α2β2γ1 in an amount to give a conversion rate of approximately 10% by reaction for 2 hours, and CaMKK2 in an amount capable of sufficiently imparting activity to AMPK for one hour were mixed in a buffer solution consisting of a 50 mM HEPES-NaOH buffer solution (pH 7.0), 100 mM NaCl, 5 mM magnesium chloride, 0.1% bovine serum albumin, 0.2 mM sodium orthovanadate(V), 1 mM ethylene glycol-bis(2-aminoethyl ether)-N,N,N′,N′-tetraacetic acid (EGTA), 5 mM disodium β-glycerophosphate, 1 mM dithiothreitol and 0.2 mM ATP, and the obtained liquid was left to stand at 25° C. for 1 to 1.5 hours to sufficiently phosphorylate AMPK.
The obtained liquid was left to stand for 10 minutes.
The obtained liquid was allowed to react at 25° C. for 2 hours, and 10 μl of 20 mM EDTA was then added thereto to stop the reaction.
To detect phosphorylated fluorescent substrates, the reaction liquid was applied to a measuring device, LabChip EZ Reader II manufactured by Caliper Life Science, Inc., for detecting fluorescence by using differences in mobility due to differences in charge. The setting conditions for the device were pressure, −1.5 PSI; upstream voltage, −2250 V; downstream voltage, −400 V; post sample buffer sip time, 40 seconds; final delay, 120 seconds; and peak order, Product First.
A conversion rate was calculated from the peak heights of the resulting substrate and product. The conversion rate when not containing a compound was used as a control, and a concentration dependent curve was made by plotting the rate of increase in activity to the control at each concentration of a compound.

Setting [1] is: human AMPK α2β2γ1, relative to control (100%).

T1 sequence (P54646 whole entry): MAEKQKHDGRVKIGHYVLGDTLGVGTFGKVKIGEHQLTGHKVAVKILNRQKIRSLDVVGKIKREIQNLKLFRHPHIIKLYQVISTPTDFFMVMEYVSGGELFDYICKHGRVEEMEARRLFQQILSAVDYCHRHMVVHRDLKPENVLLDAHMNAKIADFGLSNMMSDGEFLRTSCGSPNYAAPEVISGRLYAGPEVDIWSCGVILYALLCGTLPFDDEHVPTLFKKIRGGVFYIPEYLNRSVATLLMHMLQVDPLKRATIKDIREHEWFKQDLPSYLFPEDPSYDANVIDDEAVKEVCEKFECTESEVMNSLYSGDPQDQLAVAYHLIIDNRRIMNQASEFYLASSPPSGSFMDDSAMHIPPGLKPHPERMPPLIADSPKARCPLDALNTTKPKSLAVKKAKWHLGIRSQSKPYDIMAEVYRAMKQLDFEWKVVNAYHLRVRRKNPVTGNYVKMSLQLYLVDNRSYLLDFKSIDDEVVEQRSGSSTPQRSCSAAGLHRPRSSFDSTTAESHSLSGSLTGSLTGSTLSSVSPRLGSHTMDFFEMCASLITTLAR
T1 sequence (O43741 whole entry): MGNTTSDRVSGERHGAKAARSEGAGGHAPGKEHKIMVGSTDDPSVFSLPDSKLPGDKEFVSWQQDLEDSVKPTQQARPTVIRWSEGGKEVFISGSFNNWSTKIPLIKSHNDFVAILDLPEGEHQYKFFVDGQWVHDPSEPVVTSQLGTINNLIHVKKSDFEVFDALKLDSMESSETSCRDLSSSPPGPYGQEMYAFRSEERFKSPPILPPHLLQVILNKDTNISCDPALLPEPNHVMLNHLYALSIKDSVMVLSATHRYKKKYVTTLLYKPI
T1 sequence (P54619 whole entry partner): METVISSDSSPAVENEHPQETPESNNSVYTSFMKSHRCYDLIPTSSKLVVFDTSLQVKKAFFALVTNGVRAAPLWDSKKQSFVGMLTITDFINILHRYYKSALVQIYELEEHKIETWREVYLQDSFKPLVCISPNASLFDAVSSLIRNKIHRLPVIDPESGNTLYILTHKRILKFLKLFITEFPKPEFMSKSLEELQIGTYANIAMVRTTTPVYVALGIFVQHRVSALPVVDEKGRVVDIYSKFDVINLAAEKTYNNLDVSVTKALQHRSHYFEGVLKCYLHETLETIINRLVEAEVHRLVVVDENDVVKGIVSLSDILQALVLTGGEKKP

Usually Emax stands for the greatest response seen or fitted, relative to the assay's reference. In the case of `CS(C)(=O)=Nc1ccc(-c2ccc(-c3nc4cc(O[C@@H]5CO[C@H]6[C@@H]5OC[C@H]6O)[nH]c4cc3F)cc2)cc1` [Compound I-3-40], the “EC150 (compound concentration showing 150% relative to the control (100%))” value is listed as 0.91 nM and the maximal response (Emax) turned out to be 491%.

Take `COc1cc(C2=CCOCC2)ccc1-c1nc2cc(O[C@@H]3CO[C@H]4[C@@H]3OC[C@H]4O)[nH]c2cc1F` [Compound I-3-41]: the “EC150 (compound concentration showing 150% relative to the control (100%))” value turned out to be 31 nM. Further, the maximum response (Emax) under setting [1] is 500%.

Turning to `CS(=N)(=O)c1ccc(-c2ccc(-c3nc4cc(O[C@@H]5CO[C@H]6[C@@H]5OC[C@H]6O)[nH]c4cc3F)cc2)cc1` (some centres unmarked) [Compound I-3-43], the “EC150 (compound concentration showing 150% relative to the control (100%))” value is 0.84 nM. Further, the Emax under setting [1] was determined as 538%.

As for `CN=S(C)(=O)c1ccc(-c2ccc(-c3nc4cc(O[C@@H]5CO[C@H]6[C@@H]5OC[C@H]6O)[nH]c4cc3F)cc2)cc1` (some centres unmarked) [Compound I-4-1], the “EC150 (compound concentration showing 150% relative to the control (100%))” value turned out to be 1.4 nM. Besides, the maximal response (Emax) under setting [1] was 496%.

As for `CS(C)(=O)=Nc1ccc(-c2ccc(-c3nc4cc(O[C@@H]5CO[C@H]6[C@@H]5OC[C@H]6O)[nH]c4cc3F)c(F)c2)cc1` [Compound I-4-5], the “EC150 (compound concentration showing 150% relative to the control (100%))” value came to 3.2 nM. Also, the Emax under setting [1] was 510%.

Take `CS(C)(=O)=NC1CC=C(c2ccc(-c3nc4cc(O[C@@H]5CO[C@H]6[C@@H]5OC[C@H]6O)[nH]c4cc3F)cc2)CC1` (some centres unmarked) [Compound I-4-17]: the “EC150 (compound concentration showing 150% relative to the control (100%))” value came to 2.9 nM. Moreover, the Emax under setting [1] came to 511%.

As to `CN=S(C)(=O)c1ccc(-c2ccc(-c3nc4cc(O[C@@H]5CO[C@H]6[C@@H]5OC[C@H]6O)[nH]c4cc3C(F)(F)F)cc2)cc1` (some centres unmarked) [Compound I-4-18], the “EC150 (compound concentration showing 150% relative to the control (100%))” value is on record as 9.5 nM. Also, the Emax under setting [1] came out at 598%.

As for `CS(=O)(=NCCO)c1ccc(-c2ccc(-c3nc4cc(O[C@@H]5CO[C@H]6[C@@H]5OC[C@H]6O)[nH]c4cc3F)cc2)cc1` (some centres unmarked) [Compound I-4-31], the “EC150 (compound concentration showing 150% relative to the control (100%))” value worked out at 3.1 nM. Under setting [1], the Emax turned out to be 674%.

Turning to `CNS(=O)(=O)Nc1ccc(-c2ccc(-c3nc4cc(O[C@@H]5CO[C@H]6[C@@H]5OC[C@H]6O)[nH]c4cc3F)cc2)cc1` [Compound I-4-34], the “EC150 (compound concentration showing 150% relative to the control (100%))” value was 4 nM. Moreover, under setting [1], the maximal response (Emax) turned out to be 431%.

For the compound `COC(=O)Nc1ccc(-c2ccc(-c3nc4cc(O[C@@H]5CO[C@H]6[C@@H]5OC[C@H]6O)[nH]c4cc3F)cc2)cc1` [Compound I-4-35], the “EC150 (compound concentration showing 150% relative to the control (100%))” value is 10 nM. In addition, the maximum response (Emax) under setting [1] stood at 447%.

Consider `CN=S(C)(=O)c1ccc(-c2ccc(-c3nc4cc(O[C@@H]5CO[C@H]6[C@@H]5OC[C@H]6O)[nH]c4cc3F)cc2)cc1` (some centres unmarked) [Compound I-4-36], for which the “EC150 (compound concentration showing 150% relative to the control (100%))” value worked out at 2.3 nM. Besides, under setting [1], the Emax was found to be 510%.

With `CN=S(C)(=O)c1ccc(-c2ccc(-c3nc4cc(O[C@@H]5CO[C@H]6[C@@H]5OC[C@H]6O)[nH]c4cc3F)cc2)cc1` (some centres unmarked) [Compound I-4-37], the “EC150 (compound concentration showing 150% relative to the control (100%))” value is listed as 1.5 nM. Also, the “Emax (maximum rate of increase in activity within the measurement range)” value under setting [1] came to 502%.

On to `CNS(=O)(=O)c1ccc(-c2ccc(-c3nc4cc(O[C@@H]5CO[C@H]6[C@@H]5OC[C@H]6O)[nH]c4cc3F)cc2)cc1` [Compound I-4-39], for which the “EC150 (compound concentration showing 150% relative to the control (100%))” value was found to be 1.9 nM. Under setting [1], the Emax stood at 479%.

As to `CS(=O)(=O)c1ccc(-c2ccc(-c3nc4cc(O[C@@H]5CO[C@H]6[C@@H]5OC[C@H]6O)[nH]c4cc3F)cc2)nc1` [Compound I-4-41], the “EC150 (compound concentration showing 150% relative to the control (100%))” value is on record as 1.4 nM. For the same compound, under setting [1], the Emax turned out to be 441%.

As for `CCS(C)(=O)=Nc1ccc(-c2ccc(-c3nc4cc(O[C@@H]5CO[C@H]6[C@@H]5OC[C@H]6O)[nH]c4cc3F)cc2)cc1` (some centres unmarked) [Compound I-4-43], the “EC150 (compound concentration showing 150% relative to the control (100%))” value was determined as 1.3 nM. Also, the maximal effect (Emax) under setting [1] amounted to 453%.

Regarding `NC(=O)Nc1ccc(-c2ccc(-c3nc4cc(O[C@@H]5CO[C@H]6[C@@H]5OC[C@H]6O)[nH]c4cc3F)cc2)cc1` [Compound I-4-44], the “EC150 (compound concentration showing 150% relative to the control (100%))” value is recorded as 1.6 nM. Moreover, the Emax under setting [1] is 518%.

For the compound `COC(=O)NC1CCN(c2ccc(-c3nc4cc(O[C@@H]5CO[C@H]6[C@@H]5OC[C@H]6O)[nH]c4cc3F)cc2)CC1` [Compound I-4-53], the “EC150 (compound concentration showing 150% relative to the control (100%))” value was determined as 10 nM. The maximum response (Emax) under setting [1] is 509%.

Turning to `CS(=O)(=O)Nc1ccc(-c2ccc(-c3nc4cc(O[C@@H]5CO[C@H]6[C@@H]5OC[C@H]6O)[nH]c4cc3F)cc2)nc1` [Compound I-4-56], the “EC150 (compound concentration showing 150% relative to the control (100%))” value is given as 5.8 nM. For the same compound, under setting [1], the Emax was determined as 396%.

For `COC(=O)NC1CC=C(c2ccc(-c3nc4cc(O[C@@H]5CO[C@H]6[C@@H]5OC[C@H]6O)[nH]c4cc3F)cc2)CC1` (some centres unmarked) [Compound I-4-58], the “EC150 (compound concentration showing 150% relative to the control (100%))” value came to 4.3 nM. Moreover, under setting [1], the Emax is 486%.
